From patent US20250120978A1, “JAK INHIBITOR WITH ERK1/2 AND/OR SHP2 INHIBITORS COMBINATION THERAPY” (Erasca, Inc., priority 2021, published 2025)

How the values were obtained:
[1] = system: JAK2V617F knock-in mouse models; assay: Splenomegaly in Jak2V617F knock-in mouse model of MPN; type: in vivo; details: Compound 2 30 mg/kg/per day, compared with vehicle treatment
Experimental: In animal models, JAK2V617F expression typically leads to the development of MPN-like disease which results in enlargement of spleen (splenomegaly), higher cell counts, and fibrotic evolution. JAK2V617F knock-in mouse models were used to investigate the effect of the combination of Compound 2 with ruxolitinib. Animals were dosed with either Compound 2, ruxolitinib, or the combination of Compound 2 with ruxolitinib. […] Data are shown in bar graphs as mean±SEM (n=4 for vehicle; n=7 for Compound 2 I; n=4 for ruxolitinib; n=7 for combo drug treatment) in FIG. 6B. (*p<0.05; **p<0.005).

[2] = system: Human JAK2V617F-positive UKE-1 cells; assay: Apoptosis by Annexin V staining and flow cytometry in UKE-1 cells; type: cell-based; details: 72 hours, Annexin V staining; single drug
Experimental: The following experiment was designed to test whether the combination of Compound 2 and ruxolitinib induces apoptosis in UKE-1 cells harboring a JAK2V617F mutation. […] Cell apoptosis was determined by Annexin V staining and flow cytometry.

Question: What does the source list for `COCOC[C@H]1C[C@H]2COc3c(Sc4cnc(N5CCC6(CC5)CO[C@@H](C)[C@H]6N)c(CO)n4)ccnc3N2C1` [Compound 2, (3-((3S,4S)-4-amino-3-methyl-2-oxa-8-azaspiro[4.5]decan-8-yl)-6-(((6aS,8S)-8-((methoxymethoxy)methyl)-6a,7,8,9-tetrahydro-6H-pyrido[3,2-b]pyrrolo[1,2-d][1,4]oxazin-4-yl)thio)pyrazin-2-yl)methanol]?
Answer: spleen size/weight [1]: significantly reduced; cell apoptosis [2]: induced apoptosis
